From PubChem BioAssay (NCI)
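Interpolation was linear, between the two tested concentrations surrounding the appropriate level; five concentrations were tested over 48 hours in 96-well plates. The concentration for full growth arrest is given as TGI.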

Key:
Assay in all cases: growth of human tumour cells (NCI), 48 h
[1] = system: CAKI-1 renal
[2] = system: OVCAR-4 ovarian
[3] = system: OVCAR-8 ovarian
[4] = system: SF-539 CNS
[5] = system: A498 renal
[6] = system: M14 melanoma
[7] = system: 786-0 renal
[8] = system: HOP-62 NSCLC
[9] = system: CCRF-CEM leukemia
[10] = system: UACC-62 melanoma
[11] = system: SK-MEL-2 melanoma
[12] = system: DMS 273 small cell lung
[13] = system: ACHN renal
[14] = system: K-562 leukemia
[15] = system: SK-MEL-28 melanoma
[16] = system: NCI-H522 lung
[17] = system: M19-MEL melanoma
[18] = system: UACC-257 melanoma
[19] = system: COLO 205 colon
[20] = system: HT29 colon
[21] = system: KM20L2 colon
[22] = system: U251 CNS
[23] = system: SN12C renal
[24] = system: RPMI-8226 leukemia
[25] = system: DLD-1 colon
[26] = system: HOP-18 NSCLC
[27] = system: RXF 393 renal
[28] = system: A549 NSCLC
[29] = system: SNB-78 CNS
[30] = system: SK-OV-3 ovarian
[31] = system: NCI-H460 lung
[32] = system: HOP-92 NSCLC
[33] = system: UO-31 renal
[34] = system: SK-MEL-5 melanoma
[35] = system: NCI-H23 lung
[36] = system: OVCAR-5 ovarian
[37] = system: SNB-75 CNS
[38] = system: SW-620 colon
[39] = system: MALME-3M melanoma
[40] = system: SF-295 CNS
[41] = system: SF-268 CNS
[42] = system: EKVX NSCLC
[43] = system: LXFL 529 NSCLC
[44] = system: IGROV1 ovarian
[45] = system: KM12 colon
[46] = system: SR leukemia
[47] = system: MOLT-4 leukemia
[48] = system: OVCAR-3 ovarian
[49] = system: SNB-19 CNS
[50] = system: LOX IMVI melanoma
[51] = system: TK-10 renal
[52] = system: HCT-15 colon
[53] = system: HCT-116 colon
[54] = system: HCC-2998 colon
[55] = system: DMS 114 small cell lung
[56] = system: HL-60(TB) leukemia
[57] = system: XF 498 CNS

## CN(C)c1nc(N(C)C)nc(N(C)CN(C)c2nc(N(C)C)nc(N(C)C)n2)n1
[1]
  TGI: > 100 µM
[2]
  TGI: > 100 µM
[3]
  TGI: > 100 µM
[4]
  TGI: > 100 µM
[5]
  TGI: > 100 µM
[6]
  TGI: > 100 µM
[7]
  TGI: 32.9 µM
[8]
  TGI: > 100 µM
[9]
  TGI: > 100 µM
[10]
  TGI: > 100 µM
[11]
  TGI: > 100 µM
[12]
  TGI: > 100 µM
[13]
  TGI: > 100 µM
[14]
  TGI: > 100 µM
[15]
  TGI: > 100 µM
[16]
  TGI: > 100 µM
[17]
  TGI: > 100 µM
[18]
  TGI: > 100 µM
[19]
  TGI: > 100 µM
[20]
  TGI: > 100 µM
[21]
  TGI: > 100 µM
[22]
  TGI: > 100 µM
[23]
  TGI: > 100 µM
[24]
  TGI: > 100 µM
[25]
  TGI: > 100 µM
[26]
  TGI: > 100 µM
[27]
  TGI: > 100 µM
[28]
  TGI: > 100 µM
[29]
  TGI: > 100 µM
[30]
  TGI: > 100 µM
[31]
  TGI: > 100 µM
[32]
  TGI: > 100 µM
[33]
  TGI: > 100 µM
[34]
  TGI: > 100 µM
[35]
  TGI: > 100 µM
[36]
  TGI: > 100 µM
[37]
  TGI: > 100 µM
[38]
  TGI: > 100 µM
[39]
  TGI: > 100 µM
[40]
  TGI: > 100 µM
[41]
  TGI: > 100 µM
[42]
  TGI: > 100 µM
[43]
  TGI: > 100 µM
[44]
  TGI: > 100 µM
[45]
  TGI: > 100 µM
[46]
  TGI: > 100 µM
[47]
  TGI: > 100 µM
[48]
  TGI: > 100 µM
[49]
  TGI: > 100 µM
[50]
  TGI: > 100 µM
[51]
  TGI: > 100 µM
[52]
  TGI: > 100 µM
[53]
  TGI: > 100 µM
[54]
  TGI: > 100 µM
[55]
  TGI: > 100 µM
[56]
  TGI: > 100 µM

## COc1cc(/C=C(\NC(=O)c2ccccc2)c2nc3ccc([N+](=O)[O-])cc3[nH]2)cc(OC)c1OC
[1]
  TGI: > 100 µM
[2]
  TGI: > 100 µM
[3]
  TGI: > 100 µM
[6]
  TGI: > 100 µM
[9]
  TGI: > 100 µM
[10]
  TGI: > 100 µM
[11]
  TGI: > 100 µM
[14]
  TGI: > 100 µM
[15]
  TGI: > 100 µM
[16]
  TGI: > 100 µM
[17]
  TGI: > 100 µM
[19]
  TGI: > 100 µM
[57]
  TGI: > 100 µM
[20]
  TGI: > 100 µM
[21]
  TGI: > 100 µM
[22]
  TGI: > 100 µM
[23]
  TGI: > 100 µM
[25]
  TGI: > 100 µM
[27]
  TGI: > 100 µM
[29]
  TGI: > 100 µM
[30]
  TGI: > 100 µM
[32]
  TGI: > 100 µM
[33]
  TGI: 89.5 µM
[34]
  TGI: > 100 µM
[35]
  TGI: > 100 µM
[36]
  TGI: > 100 µM
[38]
  TGI: > 100 µM
[39]
  TGI: > 100 µM
[40]
  TGI: > 100 µM
[43]
  TGI: > 100 µM
[44]
  TGI: > 100 µM
[45]
  TGI: > 100 µM
[46]
  TGI: > 100 µM
[47]
  TGI: > 100 µM
[48]
  TGI: > 100 µM
[49]
  TGI: > 100 µM
[51]
  TGI: > 100 µM
[52]
  TGI: > 100 µM
[54]
  TGI: > 100 µM
[55]
  TGI: > 100 µM
